Ends that are not written are not given here.
Columns and labels:
[1] = Mineralization test (von Kossa staining) of fibroin foams in complete medium in the absence of cells; conditions: absence of MSC (NO MSC), 7 days
Method: (§1) Human mesenchymal stem cells (MSCs) were purchased from Lonza and cultured in Dulbecco's Modified Eagle's Medium (DMEM), supplemented with 10% MSC Stimulatory Supplement, 100 U/mL penicillin-streptomycin and non-essential amino acids at 37° C. in a fully humidified atmosphere at 5% CO2. The fibroin foams were placed in a 96-well plate, immersed in 70% ethanol for 30 minutes, washed in phosphate buffered saline (PBS) three times, immersed in 100 U/mL penicillin-streptomycin overnight and washed three times in PBS. MSC (10^4/50 μL) were seeded by pipetting onto different points of the foam to improve the distribution of the cells within the foam and allowed to adhere for 30 minutes. Subsequently, 150 μL of complete medium were added to each well. As a negative control, the fibroin foams were kept in the complete cell-free medium. The medium was changed every two days.
(§2) The foams were washed twice with PBS (not containing magnesium/calcium ions) before cell lysis and protein extraction. Cell lysis was performed using the HEPES buffer (50 mM HEPES, pH 7.4, 150 mM NaCl, 10% (v/v) glycerol, 1% (v/v) Triton X-100, 1.5 mM MgCl2, 1 mM EGTA) containing 100 mM NaF, 1 mM NaVO4, 1 μg/mL leupeptin, and 1 μg/mL aprotinin. After 30 minutes on ice, the extracts were centrifuged for 10 minutes at 13,000 g as cell lysate and stored at −20° C. The remaining deposited matrix was washed twice with PBS (not containing magnesium/calcium ions). To fix the matrix on the fibroin foams […] was added in ultrapure water at room temperature for 10 minutes and then two washes with ultrapure water were performed. […]
(§3) The human mesenchymal stem cells (MSCs) were cultured for 7 days in the fibroin foams functionalized with the biomimetic peptides, using a non-functionalized fibroin foam as a reference. […] The extent of calcium deposit was studied by means of von Kossa staining and quantified by image analysis with ImageJ software. […] The threshold was adjusted manually, and the percentage area covered by the signal above the threshold was measured.

[2] = tested on: human mesenchymal stem cells (MSCs); test: Mineralization test (von Kossa staining) of fibroin foams incubated with human mesenchymal stem cells; type: cell-based; conditions: presence of MSC (+MSC), complete medium, 7 days, decellularized foams
Method: as §1, §2, §3

[3] = SEM/EDX chemical characterization of fibroin foams incubated in SBF; conditions: fibroin foam functionalized with peptide, 14 days, aggregates "Object 10437"
Method: […]
The fibroin foam samples were analysed in SEM/EDX in order to morphologically and compositionally identify the mineral formations constituted by calcium and phosphate salts.

Row | Sequence | amount of deposited calcium (percentage area covered by von Kossa staining) versus non-functionalized foam [1] | amount of deposited calcium (percentage area covered by von Kossa staining) versus non-functionalized foam [2] | chemical composition of the crystalline aggregates (SEM/EDX) [3]
1 | SGYEYAWSSESDF | always higher | always higher | 
2 | GPYVAHGGYSGYEY | always higher | always higher | 
3 | VNGGYSGYEYAW | always higher | always higher | intense signals of calcium (Ca) and phosphorus (P)

Source: US20250129123A1, “BIOMIMETIC PEPTIDES AND THEIR USE IN BONE REGENERATION” (SILK BIOMATERIALS S.R.L., priority 2021, published 2025)
